Patent US20080311126A1, “Antisense Oligonucleotides Directed to Ribonucleotide Reducatase R2 and Uses Thereof in Combination Therapies for the Treatment of Cancer” (Genesense Technologies, Inc, priority 2004, published 2008)
“Also recorded” adds a separate entry of the source.

How the values were obtained:
[1] = test system: BxPC-3 human pancreatic carcinoma cells; test: BxPC-3 gemcitabine resistant pancreatic carcinoma xenograft in CD-1 nude mice; format: in vivo
Method: BxPC-3 human pancreatic carcinoma cells (3×10^6 cells in 100 μl of PBS) were subcutaneously injected into the right flank of 6-7 weeks old female CD-1 nude mice. BxPC-3 is a gemcitabine resistant call line. After the size of tumour reached an approximate volume of 100 mm^3, 21 days post tumour cell injection, SEQ ID NO:1 was administered by bolus infusion into the tail vein every other day at 10 mg/kg 17 times. Control animals received saline alone for the same period. Antitumour effect of SEQ ID NO:1 was further compared to that of Gemcitabine. Gemcitabine was administered intravenously every three days at a dose of 100 mg/kg. Antitumour activities were estimated by the inhibition of tumour volume, which was measured with caliper. Each point represents mean tumour volume calculated from 10 animals per experimental group. […] As expected, treatment with Gemcitabine during the same period was ineffective against Gemcitabine-resistant tumour (FIGS. 19A & B).

[2] = test system: Human Ovary Adenocarcinoma; test: Tumour growth assay, human ovary adenocarcinoma in Balb/c Nu-Nu mice; format: in vivo
[3] = test system: LS513 multi-drug resistant colon carcinoma cells; test: LS513 multi-drug resistant colon carcinoma xenograft in SCID mice; format: in vivo, human
Method: LSS13 multi-drug resistant colon carcinoma cells (1×10^7 cells in 100 μl of PBS) were subcutaneously injected into the right flank of 6-7 weeks old female SCID mice. After the size of tumour reached an approximate volume of […], 8 days post tumour cell injection, SEQ ID NO:1 was administered by bolus infusion into the tail vein every other day at 10 mg/kg. Control animals received saline alone for the same period. Antitumour effect of SEQ ID NO:1 was further compared to that of CPT-11 alone or in combination. CPT-11 was administered i.p. for 5 days at a dose of 20 mg/kg/day. Antitumour activities were estimated by the inhibition of tumour volume, which was measured with caliper. Each point represents mean tumour volume calculated from 10 animals per experimental group. Tumour weights were measured after animals were sacrificed at the end of the treatment. These cells are not resistant to CPT-11 which was used as a positive control.

Human Renal Carcinoma = test: Tumour growth assay, human renal carcinoma in mice; format: in vivo
Mouse Fibrosarcoma = test: Tumour growth assay, mouse fibrosarcoma in C3H mice; format: in vivo
Human Melanoma = test: Tumour growth assay, human melanoma in mice; format: in vivo
Erythroleukemia = test: Survival assay, erythroleukemia in mice; format: in vivo, murine
Method: For the study of the effect of the compositions on leukaemias, the animals are grafted with a particular number of cells, and the anti-tumour activity is determined by the increase in the survival time of the treated mice relative to the controls.

Sequence: GGCTAAATCGCTCCACCAAG (chemistry not given here) [SEQ ID NO: 1, antisense oligonucleotide that hybridizes to the coding region of human ribonucleotide reductase R2 mRNA]
- Tumour weight as % of saline control ([1]; BxPC-3 (pancreatic), Gemcitabine resistance, CD-1): 5.8%
- antitumour effect (tumour volume) ([1]; SEQ ID NO:1 10 mg/kg 17 times i.v., Gemcitabine 100 mg/kg i.v. every three days): significant delay of tumour growth
- Inhibition of tumour size ([2]; Balb/c Nu-Nu mice, Days 19 to 25 after tumour implantation): approximately 35% in Balb/c Nu-Nu
- Inhibition of tumour weight ([2]; Human Ovary Adenocarcinoma): of approximately 50%
- Tumour weight as % of saline control ([3]; LS513 (colon) multi-drug resistant (CPT-11 sensitive), SCID): 49%
- antitumour effect (tumour volume, tumour weight) ([3]; SEQ ID NO:1 10 mg/kg every other day, CPT-11 20 mg/kg/day i.p. 5 days): significant delay of tumour growth; also recorded: as effective as CPT-11
- Inhibition of tumour size (Human Renal Carcinoma; Human Renal Carcinoma (first entry)): Approximately 90% inhibition of
- Inhibition of tumour size (Human Renal Carcinoma; Human Renal Carcinoma^2 (second entry)): Approximately 97% inhibition of
- Inhibition of tumour volume (Mouse Fibrosarcoma; C3H mice, Day 15 after tumour implantation): mice by approximately 80% on Day 15
- dose dependence of decrease in tumour weight (Mouse Fibrosarcoma; C3H mice, doses of 0.5 to 30 mg/kg): Dose-dependent decrease in tumour
- Inhibition of tumour weight (Mouse Fibrosarcoma; Mouse Fibrosarcoma): approximately 80%
- Inhibition of tumour weight (Human Melanoma): approximately 80%
- effect of treatment on survival (Erythroleukemia; Erythroleukemia): Treatment prolonged survival
- survival of treated mice (Erythroleukemia; untreated died within 36 days, one treated mouse died at day 22): Treated mice survived beyond day 71
